Experiments:
panel of 442 kinases [1] = biological target: T1, panel of 442 kinases (Homo sapiens, UniProt P29320); type: binding; settings: Compound Concentration 10 µM
T1 construct: purchased KINOMEscan
T1 sequence (P29320 21-983): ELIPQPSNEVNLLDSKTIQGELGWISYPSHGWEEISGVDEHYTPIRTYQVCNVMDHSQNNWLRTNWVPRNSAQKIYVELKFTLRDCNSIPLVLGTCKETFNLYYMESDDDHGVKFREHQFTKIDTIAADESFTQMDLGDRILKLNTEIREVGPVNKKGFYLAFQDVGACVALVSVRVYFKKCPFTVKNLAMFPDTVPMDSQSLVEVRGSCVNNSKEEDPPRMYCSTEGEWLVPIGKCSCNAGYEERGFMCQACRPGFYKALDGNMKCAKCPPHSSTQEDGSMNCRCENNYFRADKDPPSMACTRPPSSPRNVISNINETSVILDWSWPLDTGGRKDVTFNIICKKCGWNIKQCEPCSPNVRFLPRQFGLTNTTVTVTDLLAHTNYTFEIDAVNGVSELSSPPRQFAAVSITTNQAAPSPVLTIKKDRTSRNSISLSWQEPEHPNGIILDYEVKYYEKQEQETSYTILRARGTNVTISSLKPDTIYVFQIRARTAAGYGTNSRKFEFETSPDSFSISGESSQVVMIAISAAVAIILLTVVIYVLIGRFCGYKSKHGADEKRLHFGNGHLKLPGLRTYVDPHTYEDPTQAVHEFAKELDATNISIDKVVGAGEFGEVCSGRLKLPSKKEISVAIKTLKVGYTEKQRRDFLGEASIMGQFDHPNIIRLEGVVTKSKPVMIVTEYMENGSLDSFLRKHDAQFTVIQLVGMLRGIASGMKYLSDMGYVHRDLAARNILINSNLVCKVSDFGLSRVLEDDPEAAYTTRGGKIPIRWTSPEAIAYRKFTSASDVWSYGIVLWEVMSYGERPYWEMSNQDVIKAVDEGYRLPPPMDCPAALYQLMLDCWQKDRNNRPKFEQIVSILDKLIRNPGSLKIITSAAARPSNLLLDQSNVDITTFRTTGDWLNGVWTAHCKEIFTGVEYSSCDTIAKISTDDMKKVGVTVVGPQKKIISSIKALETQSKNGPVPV
Excerpt: (§1) We assessed the selectivity of members of this scaffold using the KINOMEscan methodology across a near comprehensive panel of 442 kinases [[18,27]].

panel of 442 kinases [2] = biological target: T2, panel of 442 kinases (Homo sapiens, UniProt Q9NRH2); type: binding; settings: kinase SNRK; compound concentration 10 µM
T2 construct: purchased KINOMEscan
T2 sequence (Q9NRH2 1-765): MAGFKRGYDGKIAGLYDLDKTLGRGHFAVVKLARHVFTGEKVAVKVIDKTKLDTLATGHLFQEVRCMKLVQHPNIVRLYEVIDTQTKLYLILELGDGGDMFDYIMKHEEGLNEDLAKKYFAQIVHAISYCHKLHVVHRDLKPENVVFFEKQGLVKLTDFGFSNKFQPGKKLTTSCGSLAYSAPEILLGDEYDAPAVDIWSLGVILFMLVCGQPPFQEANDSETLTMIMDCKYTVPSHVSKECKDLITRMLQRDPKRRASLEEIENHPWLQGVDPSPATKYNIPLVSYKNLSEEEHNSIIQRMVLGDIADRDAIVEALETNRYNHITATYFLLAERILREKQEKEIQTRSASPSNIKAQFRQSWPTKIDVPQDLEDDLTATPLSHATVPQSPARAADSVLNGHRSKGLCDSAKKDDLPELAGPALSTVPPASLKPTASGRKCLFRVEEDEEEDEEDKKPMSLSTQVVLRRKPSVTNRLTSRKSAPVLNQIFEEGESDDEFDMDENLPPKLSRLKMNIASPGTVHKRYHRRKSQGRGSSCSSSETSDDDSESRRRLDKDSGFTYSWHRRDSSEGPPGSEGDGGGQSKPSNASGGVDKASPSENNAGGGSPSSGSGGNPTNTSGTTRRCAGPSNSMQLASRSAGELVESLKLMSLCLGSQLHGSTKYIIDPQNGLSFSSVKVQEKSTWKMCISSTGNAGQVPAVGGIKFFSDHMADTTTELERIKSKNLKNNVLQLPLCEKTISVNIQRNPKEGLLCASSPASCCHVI
Excerpt: as §1

SMILES	KINOMEscan: EPHA3 (panel of 442 kinases [1])	% Ctrl, SNRK (panel of 442 kinases [2]) [% Ctrl]
COc1cc(C(=O)N2CCC(N3CCN(C)CC3)CC2)ccc1Nc1ncc2c(n1)N(C1CCCC1)c1ccccc1C(=O)N2C [Compound 25, 11-cyclopentyl-2-((2-methoxy-4-(4-(4-methylpiperazin-1-yl)piperidine-1-carbonyl)phenyl)amino)-5-methyl-5H-benzo[e]pyrimido[5,4-b][1,4]diazepin-6(11H)-one]	100	72
COc1cc(C(=O)N2CCC(N3CCN(C)CC3)CC2)ccc1Nc1ncc2c(n1)N1CCc3cccc(c31)C(=O)N2C [Compound 24]	91	–
COc1cc(C(=O)N2CCC(N3CCN(C)CC3)CC2)ccc1Nc1ncc2c(n1)N(C)c1ccccc1C(=O)N2C [15 (LRRK2-IN-1)]	100	94
CCOc1cc(C(=O)N2CCC(N3CCN(C)CC3)CC2)ccc1Nc1ncc2c(n1)N(C1CCCC1)c1ccccc1C(=O)N2C [Compound 26]	95	52
